Reference: the NIST ThermoML archive (doi:10.1021/je200213h)

How the values were obtained:
[1] = xn = mol fraction of the nth substance listed; conditions: 101 kPa, Liquid, Capillary tube (Ostwald / Ubbelohde) method
[2] = 101.33 kPa, Liquid, Capillary tube (Ostwald / Ubbelohde) method

CCC(C)(C)C [2,2-dimethylbutane] + CCCCCl
kinematic viscosity [m2/s], [1]
Conditions | 283.15 K | 298.15 K | 313.15 K
x1 = 0.0524 | 5.594e-07 | 4.802e-07 | 4.231e-07
x1 = 0.101 | 5.603e-07 | 4.809e-07 | 4.239e-07
x1 = 0.1995 | 5.627e-07 | 4.822e-07 | 4.253e-07
x1 = 0.3081 | 5.663e-07 | 4.846e-07 | 4.275e-07
x1 = 0.3985 | 5.705e-07 | 4.867e-07 | 4.294e-07
x1 = 0.499 | 5.76e-07 | 4.898e-07 | 4.322e-07
x1 = 0.5984 | 5.822e-07 | 4.943e-07 | 4.362e-07
x1 = 0.7015 | 5.899e-07 | 5e-07 | 4.409e-07
x1 = 0.7986 | 5.992e-07 | 5.063e-07 | 4.463e-07
x1 = 0.9002 | 6.098e-07 | 5.133e-07 | 4.52e-07
x1 = 0.9487 | 6.16e-07 | 5.17e-07 | 4.55e-07

CC(C)(C)Cl [2-chloro-2-methylpropane]
[2]
Conditions | kinematic viscosity [m2/s]
283.15 K | 6.992e-07
298.15 K | 5.696e-07
313.15 K | 4.77e-07

CC(C)(C)Cl [2-chloro-2-methylpropane] + CCC(C)CC
kinematic viscosity [m2/s], [1]
Conditions | 283.15 K | 298.15 K | 313.15 K
x2 = 0.0496 | 6.755e-07 | 5.548e-07 | 4.681e-07
x2 = 0.0995 | 6.538e-07 | 5.4e-07 | 4.576e-07
x2 = 0.2046 | 6.148e-07 | 5.14e-07 | 4.4e-07
x2 = 0.3023 | 5.848e-07 | 4.937e-07 | 4.256e-07
x2 = 0.405 | 5.592e-07 | 4.767e-07 | 4.14e-07
x2 = 0.5064 | 5.394e-07 | 4.637e-07 | 4.051e-07
x2 = 0.6033 | 5.235e-07 | 4.536e-07 | 3.984e-07
x2 = 0.7038 | 5.114e-07 | 4.462e-07 | 3.933e-07
x2 = 0.8012 | 5.026e-07 | 4.41e-07 | 3.9e-07
x2 = 0.9018 | 4.964e-07 | 4.377e-07 | 3.881e-07
x2 = 0.9514 | 4.946e-07 | 4.372e-07 | 3.88e-07

CC(C)(C)Cl [2-chloro-2-methylpropane] + CCCCCC
kinematic viscosity [m2/s], [1]
Conditions | 283.15 K | 298.15 K | 313.15 K
x2 = 0.0495 | 6.722e-07 | 5.527e-07 | 4.671e-07
x2 = 0.0989 | 6.489e-07 | 5.369e-07 | 4.565e-07
x2 = 0.2019 | 6.091e-07 | 5.105e-07 | 4.391e-07
x2 = 0.2987 | 5.81e-07 | 4.916e-07 | 4.266e-07
x2 = 0.4043 | 5.575e-07 | 4.756e-07 | 4.162e-07
x2 = 0.4985 | 5.415e-07 | 4.651e-07 | 4.095e-07
x2 = 0.6024 | 5.287e-07 | 4.571e-07 | 4.048e-07
x2 = 0.7017 | 5.203e-07 | 4.516e-07 | 4.019e-07
x2 = 0.7996 | 5.151e-07 | 4.489e-07 | 4.009e-07
x2 = 0.9025 | 5.123e-07 | 4.478e-07 | 4.016e-07
x2 = 0.9498 | 5.119e-07 | 4.483e-07 | 4.023e-07

CC(C)(C)Cl [2-chloro-2-methylpropane] + CCCCCCC
kinematic viscosity [m2/s], [1]
Conditions | 283.15 K | 298.15 K | 313.15 K
x2 = 0.0519 | 6.84e-07 | 5.603e-07 | 4.741e-07
x2 = 0.1021 | 6.722e-07 | 5.532e-07 | 4.711e-07
x2 = 0.2015 | 6.546e-07 | 5.438e-07 | 4.675e-07
x2 = 0.3006 | 6.44e-07 | 5.389e-07 | 4.666e-07
x2 = 0.3997 | 6.391e-07 | 5.38e-07 | 4.679e-07
x2 = 0.5027 | 6.376e-07 | 5.391e-07 | 4.699e-07
x2 = 0.6011 | 6.397e-07 | 5.434e-07 | 4.735e-07
x2 = 0.7014 | 6.441e-07 | 5.489e-07 | 4.78e-07
x2 = 0.8007 | 6.504e-07 | 5.572e-07 | 4.832e-07
x2 = 0.8966 | 6.591e-07 | 5.652e-07 | 4.894e-07
x2 = 0.9518 | 6.651e-07 | 5.706e-07 | 4.944e-07

CCC(C)Cl (stereo not drawn) [2-chlorobutane]
[2]
Conditions | kinematic viscosity [m2/s]
283.15 K | 5.237e-07
298.15 K | 4.603e-07
313.15 K | 4.049e-07
